Structures are written as SMILES.

Results on 26 molecules are retold here after patent publication US9656978B2, “Acylpiperazines as inhibitors of transglutaminase and their use in medicine” (ASTON UNIVERSITY, priority 2012, dated 2017).

The target of data set [1] is T1, purified recombinant human TG2 (tissue transglutaminase) (Homo sapiens, UniProt P21980).
T1 construct: purchased Zedira, Germany
T1 sequence (P21980 1-687): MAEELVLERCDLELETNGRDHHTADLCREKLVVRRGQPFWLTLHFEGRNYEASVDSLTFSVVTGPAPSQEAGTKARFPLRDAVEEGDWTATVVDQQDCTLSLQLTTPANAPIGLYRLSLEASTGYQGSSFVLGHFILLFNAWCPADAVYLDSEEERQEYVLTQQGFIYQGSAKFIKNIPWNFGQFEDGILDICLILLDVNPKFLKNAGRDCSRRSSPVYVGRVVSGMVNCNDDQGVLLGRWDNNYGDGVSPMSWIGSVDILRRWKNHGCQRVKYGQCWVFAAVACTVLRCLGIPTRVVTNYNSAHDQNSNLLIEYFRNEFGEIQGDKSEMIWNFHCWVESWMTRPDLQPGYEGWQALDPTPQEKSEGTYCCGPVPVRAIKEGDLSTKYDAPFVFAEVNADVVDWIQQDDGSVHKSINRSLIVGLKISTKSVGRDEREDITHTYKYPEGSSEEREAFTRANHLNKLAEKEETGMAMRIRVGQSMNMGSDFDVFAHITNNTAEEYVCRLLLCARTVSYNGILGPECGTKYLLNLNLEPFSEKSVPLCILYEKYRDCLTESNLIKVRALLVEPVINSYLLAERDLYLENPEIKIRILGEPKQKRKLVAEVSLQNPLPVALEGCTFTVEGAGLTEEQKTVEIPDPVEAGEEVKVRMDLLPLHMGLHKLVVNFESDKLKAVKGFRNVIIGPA
Put plainly: TG2 transamidation activity, biotin X-cadaverine incorporation into N,N′-dimethylcasein (Example 2). In kind it is biochemical. The following applies: recombinant human TG2 400 ng/ml, 2 h at 37° C. On the procedure:
TG transamidation activity and the affect of inhibitors on activity was measured by biotin X-cadaverine incorporation into N,N′-dimethylcasein. After coating 96 well plates with 100 μl of 10 mg/ml N,N′-dimethylcasein in 50 mM Tris-Cl, pH8 at 4° C. over night, plates were washed with TBS-0.05% Tween-20(v/v), pH 7.6 and TBS, pH 7.6, and 100 μl purified recombinant human TG2 (400 ng/ml Zedira, Germany) (tissue transglutaminase) in 50 mM Tris-HCl, pH7.4, containing 1 mM DTT, 10 mM CaCl2 and 0.1 μM biotin-cadaverine added into the coated wells containing the appropriate concentration of inhibitor. The reaction was allowed to proceed for 2 h at 37° C. The plate was then washed twice with TBS-Tween-20 (v/v), pH 7.6 and once with TBS, pH 7.6 before being blocked with 100 μl of blocking buffer (3% (w/v) BSA in TBS-Tween, pH 7.6) for 30 min at 37° C. After blocking, the wells were incubated with 100 μl HRP-conjugated Extr-Avidin peroxidase (Sigma-Aldrich, UK) in blocking buffer (1:1,000 dilution) for 1 h at 37° C. After another set of washes, TG2 activity was measured using Sigma Fast OPD, tablets dissolved in 20 ml of distilled H2O. The colour was developed by adding 2.5 M H2SO4 and the absorbance at 490 nm measured using a microplate reader ELx808™. All inhibitors were dissolved in DMSO as a 100 mM solution prior to addition to the assay.

In another data set the target is T2, Factor X111a (Homo sapiens, UniProt P00488).
T2 sequence (P00488 39-732 limits assumed): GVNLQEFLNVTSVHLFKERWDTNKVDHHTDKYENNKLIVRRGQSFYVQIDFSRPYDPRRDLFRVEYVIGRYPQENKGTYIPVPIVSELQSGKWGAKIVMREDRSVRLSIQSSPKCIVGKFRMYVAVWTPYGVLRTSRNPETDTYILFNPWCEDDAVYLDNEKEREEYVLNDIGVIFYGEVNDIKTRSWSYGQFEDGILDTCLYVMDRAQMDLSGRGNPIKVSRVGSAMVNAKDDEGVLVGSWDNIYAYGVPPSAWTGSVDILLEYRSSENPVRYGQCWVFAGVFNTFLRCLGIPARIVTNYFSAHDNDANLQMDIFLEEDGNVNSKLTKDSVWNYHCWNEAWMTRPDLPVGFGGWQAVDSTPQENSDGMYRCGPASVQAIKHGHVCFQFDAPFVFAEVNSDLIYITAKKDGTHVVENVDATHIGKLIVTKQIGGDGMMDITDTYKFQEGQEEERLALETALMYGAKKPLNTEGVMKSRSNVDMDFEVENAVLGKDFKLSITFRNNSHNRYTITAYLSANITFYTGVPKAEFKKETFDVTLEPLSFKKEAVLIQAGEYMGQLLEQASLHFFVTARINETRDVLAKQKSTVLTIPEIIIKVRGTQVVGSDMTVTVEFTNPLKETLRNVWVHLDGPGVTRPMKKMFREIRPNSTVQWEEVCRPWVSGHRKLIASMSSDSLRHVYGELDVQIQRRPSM
Put plainly: TG-CovTest commercial microassay, Factor X111a. In kind it is biochemical. The settings on record: read-out: Estimated IC50 FXIII. The source says: (§1) For determination of the activity of transglutaminase 1,transglutaminase 3 and Factor X111a, a commercial microassay was used, TG-CovTest (Covalab, Lyon, France; see also Perez et al. Anal Biochem. 2009; 389:150-156).

In a further data set the target is T3, transglutaminase 1 (Homo sapiens, UniProt P22735).
T3 sequence (P22735 1-817): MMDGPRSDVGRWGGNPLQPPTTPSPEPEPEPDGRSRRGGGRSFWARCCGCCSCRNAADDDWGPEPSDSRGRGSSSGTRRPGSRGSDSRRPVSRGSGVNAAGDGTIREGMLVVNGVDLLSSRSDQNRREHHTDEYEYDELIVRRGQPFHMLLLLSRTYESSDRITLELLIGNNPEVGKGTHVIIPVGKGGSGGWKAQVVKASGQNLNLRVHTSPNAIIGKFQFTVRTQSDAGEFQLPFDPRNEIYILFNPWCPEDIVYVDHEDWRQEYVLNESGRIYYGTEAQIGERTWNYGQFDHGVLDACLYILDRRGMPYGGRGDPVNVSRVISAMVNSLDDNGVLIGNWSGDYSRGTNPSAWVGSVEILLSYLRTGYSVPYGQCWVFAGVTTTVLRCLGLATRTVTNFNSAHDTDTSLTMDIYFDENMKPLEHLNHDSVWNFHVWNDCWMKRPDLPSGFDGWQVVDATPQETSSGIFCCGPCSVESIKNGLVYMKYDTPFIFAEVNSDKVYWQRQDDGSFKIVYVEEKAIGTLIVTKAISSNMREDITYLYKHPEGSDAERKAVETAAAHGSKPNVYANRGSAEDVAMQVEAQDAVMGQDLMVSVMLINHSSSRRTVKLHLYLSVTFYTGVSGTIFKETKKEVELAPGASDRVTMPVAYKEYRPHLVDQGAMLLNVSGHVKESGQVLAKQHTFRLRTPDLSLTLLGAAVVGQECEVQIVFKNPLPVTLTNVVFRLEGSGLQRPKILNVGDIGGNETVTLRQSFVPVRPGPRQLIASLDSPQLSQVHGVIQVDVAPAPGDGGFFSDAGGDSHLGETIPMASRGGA
The experiment in a line: TG-CovTest commercial microassay, transglutaminase 1. The following applies: read-out: Estimated IC50 TG1. The format is biochemical.
Description: as §1

The next data set deals with T4, transglutaminase 3 (Homo sapiens, UniProt Q08188).
T4 sequence (Q08188 1-693): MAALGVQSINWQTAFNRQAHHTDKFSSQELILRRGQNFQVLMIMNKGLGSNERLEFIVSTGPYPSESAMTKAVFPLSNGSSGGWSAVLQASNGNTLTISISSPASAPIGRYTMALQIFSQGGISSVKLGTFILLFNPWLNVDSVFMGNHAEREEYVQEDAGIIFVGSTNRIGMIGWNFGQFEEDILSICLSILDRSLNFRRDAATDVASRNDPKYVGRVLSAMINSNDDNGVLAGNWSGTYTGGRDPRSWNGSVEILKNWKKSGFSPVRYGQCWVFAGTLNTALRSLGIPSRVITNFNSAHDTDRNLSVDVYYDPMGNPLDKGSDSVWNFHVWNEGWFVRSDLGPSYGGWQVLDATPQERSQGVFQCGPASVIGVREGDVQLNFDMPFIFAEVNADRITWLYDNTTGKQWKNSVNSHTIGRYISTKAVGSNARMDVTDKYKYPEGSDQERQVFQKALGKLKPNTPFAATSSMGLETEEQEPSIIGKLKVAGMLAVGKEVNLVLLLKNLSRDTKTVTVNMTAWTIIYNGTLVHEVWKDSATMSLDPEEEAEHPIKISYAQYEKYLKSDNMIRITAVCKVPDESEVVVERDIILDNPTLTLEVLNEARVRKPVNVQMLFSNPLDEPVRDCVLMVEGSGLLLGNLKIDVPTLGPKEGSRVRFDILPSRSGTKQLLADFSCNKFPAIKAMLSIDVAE
Put plainly: TG-CovTest commercial microassay, transglutaminase 3. In kind it is biochemical. The following applies: read-out: Estimated IC50 TG3.
Description: as §1

For `C[S+](C)CC(=O)NCC(=O)N1CCN(C(=O)OC(C)(C)C)CC1` [EB 1-46], the IC50 is 0.07 ± 0.007 µM in data set [1] and above 100 µM at Factor X111a.

With `O=C(CBr)NCC(=O)N1CCN(C(=O)OCC23CC4CC(CC(C4)C2)C3)CC1` [EB 1-176], the half-maximal inhibitory concentration (IC50) was 2 µM on transglutaminase 1, below 1 µM in data set [1], above 100 µM at Factor X111a and 25 µM at transglutaminase 3.

Consider `C[S+](C)CC(=O)NCC(=O)N1CCN(C(=O)OCc2ccccc2)CC1` [EB 1-33], for which, at Factor X111a, the IC50 is above 100 µM.

Consider `CN(C)c1cccc2c(S(=O)(=O)N3CCN(C(=O)CNC(=O)C[S+](C)C)CC3)cccc12.[Br-]`, for which the melting point fell in the range of 98 to 99 °C.

Consider `CC(=O)NCC(=O)N1CCN(C(=O)OCc2ccccc2)CC1` [EB 1-44], for which the half-maximal inhibitory concentration (IC50) in data set [1] was 4.25 ± 0.78 µM.

For the molecule `O=C(CBr)NCC(=O)N1CCN(C(=O)C23CC4CC(CC(C4)C2)C3)CC1` [EB 2-17], the IC50 at Factor X111a is below 100 µM.

Turning to `Cc1c(C)[n+](C)c(SCC(=O)NCC(=O)N2CCN(C(=O)OC(C)(C)C)CC2)n1C` [EB 1-45], in data set [1], the IC50 worked out at 400 µM.

As to `C[S+](C)CC(=O)NCC(=O)N1CCN(C(=O)C23CC4CC(CC(C4)C2)C3)CC1` [EB 2-18], the IC50 at Factor X111a was above 100 µM.

Turning to `CC[S+](CC)CC(=O)NCC(=O)N1CCN(S(=O)(=O)c2cccc3c(N(C)C)cccc23)CC1` [EB 1-159], the IC50 on transglutaminase 1, at Factor X111a and on transglutaminase 3 was above 100 µM each time.

Consider `C[S+](C)CC(=O)NCC(=O)N1CCN(C(=O)OCC23CC4CC(CC(C4)C2)C3)CC1` [EB 1-178], for which the concentration for half-maximal inhibition (IC50) on Factor X111a was above 100 µM.

As to `CN(C)c1cccc2c(S(=O)(=O)N3CCN(C(=O)CNC(=O)CCl)CC3)cccc12` [EB 2-57], the half-maximal inhibitory concentration (IC50) in data set [1] was determined as 0.0059 ± 0.00014 µM.

Take `C=CC(=O)NCC(=O)N1CCN(C(=O)C23CC4CC(CC(C4)C2)C3)CC1` [EB 2-16]: the IC50 is 2 µM on transglutaminase 1 and 30 µM on Factor X111a.

Regarding `O=C(CBr)NCC(=O)N1CCN(C(=O)OCc2ccccc2)CC1` [EB 1-32], the IC50 in data set [1] was found to be 0.75 ± 0.07 µM.

For `COC(=O)c1ccc2cc(COC(=O)N3CCN(C(=O)CNC(=O)CBr)CC3)ccc2c1` [EB 1-137], on Factor X111a, the IC50 is below 100 µM.

Regarding `C[C@@H](NC(=O)CBr)C(=O)N1CCN(C(=O)OCc2ccccc2)CC1` [EB 1-100], the IC50 in data set [1] turned out to be 0.066 ± 0.001 µM.

On to `C=CC(=O)NCC(=O)N1CCN(C(=O)OCc2ccc3ccccc3c2)CC1` [EB 1-81], for which, on Factor X111a, the 50% inhibitory concentration (IC50) is above 100 µM.

Molecule `COC(=O)c1ccc2cc(COC(=O)N3CCN(C(=O)CNC(=O)C[S+](C)C)CC3)ccc2c1.[Br-]` yielded a melting point of 125 to 126 °C.

For `C=CC(=O)NCC(=O)N1CCN(S(=O)(=O)c2cccc3c(N(C)C)cccc23)CC1` [EB 1-155], the IC50 at transglutaminase 1 was 5 µM; in data set [1], 0.0061 ± 0.00042 µM; at Factor X111a, above 100 µM; at transglutaminase 3, above 100 µM.

Molecule `C=CS(=O)(=O)NCC(=O)N1CCN(C(=O)OCc2ccccc2)CC1` [Compound 8a, benzyl 4-[2-(vinylsulfonylamino)acetyl]piperazine-1-carboxylate] registered a melting point of 66 to 67 °C.

Turning to `O=C(CBr)NCC(=O)N1CCN(C(=O)OCCC23CC4CC(CC(C4)C2)C3)CC1` [EB 1-177], the figures for the IC50 (in data set [1]; at Factor X111a) were 0.0063 ± 0.00049 µM and above 100 µM, respectively.

For the molecule `C=CS(=O)(=O)NCC(=O)N1CCN(C(=O)C23CC4CC(CC(C4)C2)C3)CC1` [Compound 8e, N-[2-[4-(adamantane-1-carbonyl)piperazin-1-yl]-2-oxo-ethyl]ethenesulfonamide], the melting point fell in the range of 159 to 160 °C.

Regarding `C[S+](C)CC(=O)NCC(=O)N1CCN(C(=O)OCc2ccc3ccccc3c2)CC1` [EB 1-91], the IC50 on Factor X111a is above 100 µM.

Take `C=CC(=O)NCC(=O)N1CCN(C(=O)OCc2ccc3cc(C(=O)OC)ccc3c2)CC1` [EB 1-136]: at Factor X111a, the IC50 is above 100 µM.

On to `CC(C)(C)OC(=O)N1CCN(C(=O)CNC(=O)CBr)CC1` [EB 1-37], for which, in data set [1], the IC50 is 0.008 ± 0.003 µM.

For `C[C@H](NC(=O)CBr)C(=O)N1CCN(C(=O)OCc2ccccc2)CC1` [EB 1-101], the half-maximal inhibitory concentration (IC50) in data set [1] was 0.048 ± 0.006 µM.

Regarding `C=CC(=O)NCC(=O)N1CCN(C(=O)OCCC23CC4CC(CC(C4)C2)C3)CC1` [EB 1-181], the 50% inhibitory concentration (IC50) on Factor X111a was above 100 µM.

For orientation: IC50 means the midpoint of a concentration-inhibition curve. For orientation: melting point means the temperature, or range, at which the solid turns liquid.
